Measurements: US12281149B2, “Modulators of G-protein coupled receptors” (priority 2021, dated 2025)
pEC50: −log10 of the molar value. Read-outs that look alike come from different tables or passages of the source. *1 amine or outer side, *2 acyl side, *3 side chain or, on linkers, in order; H or OH if unused. Where a SMILES comes first, the peptide text is derived from it. Side-chain parts run from the residue outwards. [ ]: non-standard residue; d: D form. The star is where a group is joined. NH(4-Cl-3-CF3-phenyl) = FC(F)(F)c1cc(N*)ccc1Cl; C20 diacid = O=C(O)CCCCCCCCCCCCCCCCCCC(=O)*; NH(3,5-Cl2-phenyl) = Clc1cc(Cl)cc(N*)c1; γGlu = O=C(O)[C@H](CCC(=O)[*:2])N[*:1]; NH(4-F-phenyl) = Fc1ccc(N*)cc1; X29 = Fc1ccc(N*)c(F)c1; AEEA = NCCOCCOCC(=O)O; Aib = CC(C)(N)C(=O)O; CO = O=C([*:1])[*:2]; X63 = Fc1ccc(N*)cc1F; GABA = NCCCC(=O)O

Legend:
Type in all cases: cell-based
GLP-1 receptor [1] = target: T1, GLP-1 receptor (Homo sapiens, UniProt P43220); assay: HitHunter cAMP assay, GLP-1 receptor; conditions: for Emax: read-out: Emax GLP-1R
GIP receptor [2] = target: T2, GIP receptor (Homo sapiens, UniProt P48546); assay: PathHunter β-arrestin assay, GIP receptor; design: host or cells: PathHunter CHO-K1 GIPR β-Arrestin Cell Line
T2 sequence (P48546 22-466): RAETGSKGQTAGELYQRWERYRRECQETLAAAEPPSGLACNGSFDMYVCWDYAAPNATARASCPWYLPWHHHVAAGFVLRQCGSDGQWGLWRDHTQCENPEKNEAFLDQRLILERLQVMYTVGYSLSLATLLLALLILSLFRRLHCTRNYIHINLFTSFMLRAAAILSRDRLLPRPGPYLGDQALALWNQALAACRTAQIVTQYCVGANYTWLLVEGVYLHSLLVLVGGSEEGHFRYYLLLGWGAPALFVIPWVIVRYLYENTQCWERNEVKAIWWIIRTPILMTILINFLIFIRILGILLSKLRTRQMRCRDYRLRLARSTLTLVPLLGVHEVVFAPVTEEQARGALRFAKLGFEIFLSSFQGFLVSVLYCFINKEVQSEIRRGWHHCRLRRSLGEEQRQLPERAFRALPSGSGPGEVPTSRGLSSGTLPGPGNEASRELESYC

GLP-1 receptor [3] = target: T1, GLP-1 receptor; assay: PathHunter β-arrestin assay, GLP-1 receptor; design: host or cells: PathHunter CHO-K1 GLP1R β-Arrestin Cell Line
GIP receptor [4] = target: T2, GIP receptor; assay: HitHunter cAMP assay, GIP receptor; conditions: for Emax: read-out: Emax GIP-1R
[5] = CHO cells stably expressing human GLP-1 receptor, cAMP accumulation, 30 min, read-out: EC50 GLP-1R
[6] = CHO cells, cAMP, normalized to maximum signal from GLP-1 (high) and DMSO (low)
[7] = β-arrestin-2 recruitment, PathHunter CHO-K1 GIPR β-Arrestin Cell Line, 90 min at 37° C., normalized to GIP, read-out: GIPR β Arrestin EC50
[8] = β-arrestin-2 recruitment, PathHunter CHO-K1 GLP1R β-Arrestin Cell Line, 90 min at 37° C., normalized to GLP-1, read-out: GLP-1R β Arrestin EC50
[9] = CHO cells stably expressing GIP receptor, cAMP accumulation, 30 min, read-out: EC50 GIP-1R
[10] = CHO cells, cAMP, normalized to maximum signal from GIP (high) and DMSO (low)

T1 sequence (P43220 24-463): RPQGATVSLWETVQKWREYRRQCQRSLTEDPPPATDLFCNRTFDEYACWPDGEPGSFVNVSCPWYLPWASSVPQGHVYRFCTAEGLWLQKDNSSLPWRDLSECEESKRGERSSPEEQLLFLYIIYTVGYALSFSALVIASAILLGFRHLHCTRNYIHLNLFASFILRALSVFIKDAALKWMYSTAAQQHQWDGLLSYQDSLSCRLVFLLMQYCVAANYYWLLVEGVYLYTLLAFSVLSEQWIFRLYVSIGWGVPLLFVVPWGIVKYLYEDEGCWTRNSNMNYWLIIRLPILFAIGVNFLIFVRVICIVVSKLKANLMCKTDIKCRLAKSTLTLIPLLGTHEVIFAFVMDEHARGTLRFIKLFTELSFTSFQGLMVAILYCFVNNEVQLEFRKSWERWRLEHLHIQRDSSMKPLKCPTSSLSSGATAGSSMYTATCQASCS

SMILES	pEC50 (GLP-1 receptor [1]; [5])	Emax (GLP-1 receptor [1]; [6]) [%]	pEC50 (GIP receptor [2]; [7])	pEC50 (GLP-1 receptor [3]; [8])	pEC50 (GIP receptor [4]; [9])	Emax (GIP receptor [4]; [10]) [%]	pEC50 (GLP-1 receptor [1])	Emax (GLP-1 receptor [1]; CHO) [%]	pEC50 (GIP receptor [2])	pEC50 (GLP-1 receptor [3])	pEC50 (GIP receptor [4])	Emax (GIP receptor [4]; CHO) [%]
CC[C@H](C)[C@H](NC(=O)[C@H](CC(C)C)NC(=O)[C@H](Cc1c[nH]c2ccccc12)NC(=O)[C@H](CCC(N)=O)NC(=O)[C@@H](NC(=O)[C@H](Cc1ccccc1)NC(=O)[C@H](C)NC(=O)[C@H](CCCCNC(=O)COCCOCCNC(=O)COCCOCCNC(=O)CC[C@H](NC(=O)CCCCCCCCCCCCCCCCCCC(=O)O)C(=O)O)NC(=O)[C@H](CCC(N)=O)NC(=O)[C@H](C)NC(=O)[C@@H](NC(=O)[C@H](CCCCN)NC(=O)[C@H](CC(=O)O)NC(=O)[C@H](CC(C)C)NC(=O)C(C)(C)NC(=O)[C@@H](NC(=O)[C@H](CO)NC(=O)[C@H](Cc1ccc(O)cc1)NC(=O)[C@H](CC(=O)O)NC(=O)[C@H](CO)NC(=O)[C@@H](NC(=O)[C@H](Cc1ccccc1)NC(=O)[C@@H](NC(=O)CNC(=O)[C@H](CCC(=O)O)NC(=O)CCCNC(=O)CNC(=O)Nc1ccc(F)c(F)c1)[C@@H](C)O)[C@@H](C)O)[C@@H](C)CC)[C@@H](C)CC)C(C)C)C(=O)N[C@@H](C)C(=O)NCC(=O)NCC(=O)N1CCC[C@H]1C(=O)N[C@@H](CO)C(=O)N[C@@H](CO)C(=O)NCC(=O)N[C@@H](C)C(=O)N1CCC[C@H]1C(=O)N1CCC[C@H]1C(=O)N1CCC[C@H]1C(=O)N[C@@H](CO)C(N)=O [Compound 264] ({X63-CO}-G[GABA]EGTFTSDYSI[Aib]LDKIAQK([AEEA-AEEA-γGlu-C20 diacid])AFVQWLIAGGPSSGAPPPS-NH2)	8.00 to 9.00	97	> 6.00	< 6.00	8.00 to 9.00	106						
CC[C@H](C)[C@H](NC(=O)[C@H](CC(C)C)NC(=O)[C@H](Cc1c[nH]c2ccccc12)NC(=O)[C@H](CCC(N)=O)NC(=O)[C@@H](NC(=O)[C@H](Cc1ccccc1)NC(=O)[C@H](C)NC(=O)[C@H](CCCCNC(=O)COCCOCCNC(=O)COCCOCCNC(=O)CC[C@H](NC(=O)CCCCCCCCCCCCCCCCCCC(=O)O)C(=O)O)NC(=O)[C@H](CCC(N)=O)NC(=O)[C@H](C)NC(=O)[C@@H](NC(=O)[C@H](CCCCN)NC(=O)[C@H](CC(=O)O)NC(=O)[C@H](CC(C)C)NC(=O)C(C)(C)NC(=O)[C@@H](NC(=O)[C@H](CO)NC(=O)[C@H](Cc1ccc(O)cc1)NC(=O)[C@H](CC(=O)O)NC(=O)[C@H](CO)NC(=O)[C@@H](NC(=O)[C@H](Cc1ccccc1)NC(=O)[C@@H](NC(=O)CNC(=O)[C@H](CCC(=O)O)NC(=O)CCCNC(=O)CNC(=O)Nc1ccc(Cl)c(C(F)(F)F)c1)[C@@H](C)O)[C@@H](C)O)[C@@H](C)CC)[C@@H](C)CC)C(C)C)C(=O)N[C@@H](C)C(=O)NCC(=O)NCC(=O)N1CCC[C@H]1C(=O)N[C@@H](CO)C(=O)N[C@@H](CO)C(=O)NCC(=O)N[C@@H](C)C(=O)N1CCC[C@H]1C(=O)N1CCC[C@H]1C(=O)N1CCC[C@H]1C(=O)N[C@@H](CO)C(N)=O [Compound 265] ({NH(4-Cl-3-CF3-phenyl)-CO}-G[GABA]EGTFTSDYSI[Aib]LDKIAQK([AEEA-AEEA-γGlu-C20 diacid])AFVQWLIAGGPSSGAPPPS-NH2)							7.00 to 8.00	94	> 6.00	< 6.00	8.00 to 9.00	107
CC[C@H](C)[C@H](NC(=O)[C@H](CC(C)C)NC(=O)[C@H](Cc1c[nH]c2ccccc12)NC(=O)[C@H](CCC(N)=O)NC(=O)[C@@H](NC(=O)[C@H](Cc1ccccc1)NC(=O)[C@H](C)NC(=O)[C@H](CCCCNC(=O)COCCOCCNC(=O)COCCOCCNC(=O)CC[C@H](NC(=O)CCCCCCCCCCCCCCCCCCC(=O)O)C(=O)O)NC(=O)[C@H](CCC(N)=O)NC(=O)[C@H](C)NC(=O)[C@@H](NC(=O)[C@H](CCCCN)NC(=O)[C@H](CC(=O)O)NC(=O)[C@H](CC(C)C)NC(=O)C(C)(C)NC(=O)[C@@H](NC(=O)[C@H](CO)NC(=O)[C@H](Cc1ccc(O)cc1)NC(=O)[C@H](CC(=O)O)NC(=O)[C@H](CO)NC(=O)[C@@H](NC(=O)[C@H](Cc1ccccc1)NC(=O)[C@@H](NC(=O)CNC(=O)[C@H](CCC(=O)O)NC(=O)CCCNC(=O)CNC(=O)Nc1cc(Cl)cc(Cl)c1)[C@@H](C)O)[C@@H](C)O)[C@@H](C)CC)[C@@H](C)CC)C(C)C)C(=O)N[C@@H](C)C(=O)NCC(=O)NCC(=O)N1CCC[C@H]1C(=O)N[C@@H](CO)C(=O)N[C@@H](CO)C(=O)NCC(=O)N[C@@H](C)C(=O)N1CCC[C@H]1C(=O)N1CCC[C@H]1C(=O)N1CCC[C@H]1C(=O)N[C@@H](CO)C(N)=O [Compound 266] ({NH(3,5-Cl2-phenyl)-CO}-G[GABA]EGTFTSDYSI[Aib]LDKIAQK([AEEA-AEEA-γGlu-C20 diacid])AFVQWLIAGGPSSGAPPPS-NH2)							8.00 to 9.00	105	> 6.00	< 6.00	8.00 to 9.00	105
CC[C@H](C)[C@H](NC(=O)[C@H](CC(C)C)NC(=O)[C@H](Cc1c[nH]c2ccccc12)NC(=O)[C@H](CCC(N)=O)NC(=O)[C@@H](NC(=O)[C@H](Cc1ccccc1)NC(=O)[C@H](C)NC(=O)[C@H](CCCCNC(=O)COCCOCCNC(=O)COCCOCCNC(=O)CC[C@H](NC(=O)CCCCCCCCCCCCCCCCCCC(=O)O)C(=O)O)NC(=O)[C@H](CCC(N)=O)NC(=O)[C@H](C)NC(=O)[C@@H](NC(=O)[C@H](CCCCN)NC(=O)[C@H](CC(=O)O)NC(=O)[C@H](CC(C)C)NC(=O)C(C)(C)NC(=O)[C@@H](NC(=O)[C@H](CO)NC(=O)[C@H](Cc1ccc(O)cc1)NC(=O)[C@H](CC(=O)O)NC(=O)[C@H](CO)NC(=O)[C@@H](NC(=O)[C@H](Cc1ccccc1)NC(=O)[C@@H](NC(=O)CNC(=O)[C@H](CCC(=O)O)NC(=O)CCCNC(=O)CNC(=O)Nc1ccc(F)cc1F)[C@@H](C)O)[C@@H](C)O)[C@@H](C)CC)[C@@H](C)CC)C(C)C)C(=O)N[C@@H](C)C(=O)NCC(=O)NCC(=O)N1CCC[C@H]1C(=O)N[C@@H](CO)C(=O)N[C@@H](CO)C(=O)NCC(=O)N[C@@H](C)C(=O)N1CCC[C@H]1C(=O)N1CCC[C@H]1C(=O)N1CCC[C@H]1C(=O)N[C@@H](CO)C(N)=O [Compound 267] ({X29-CO}-G[GABA]EGTFTSDYSI[Aib]LDKIAQK([AEEA-AEEA-γGlu-C20 diacid])AFVQWLIAGGPSSGAPPPS-NH2)	8.00 to 9.00	105	< 6.00	< 6.00	8.00 to 9.00	106						
CC[C@H](C)[C@H](NC(=O)[C@H](CC(C)C)NC(=O)[C@H](Cc1c[nH]c2ccccc12)NC(=O)[C@H](CCC(N)=O)NC(=O)[C@@H](NC(=O)[C@H](Cc1ccccc1)NC(=O)[C@H](C)NC(=O)[C@H](CCCCNC(=O)COCCOCCNC(=O)COCCOCCNC(=O)CC[C@H](NC(=O)CCCCCCCCCCCCCCCCCCC(=O)O)C(=O)O)NC(=O)[C@H](CCC(N)=O)NC(=O)[C@H](C)NC(=O)[C@@H](NC(=O)[C@H](CCCCN)NC(=O)[C@H](CC(=O)O)NC(=O)[C@H](CC(C)C)NC(=O)C(C)(C)NC(=O)[C@@H](NC(=O)[C@H](CO)NC(=O)[C@H](Cc1ccc(O)cc1)NC(=O)[C@H](CC(=O)O)NC(=O)[C@H](CO)NC(=O)[C@@H](NC(=O)[C@H](Cc1ccccc1)NC(=O)[C@@H](NC(=O)CNC(=O)[C@H](CCC(=O)O)NC(=O)CCCNC(=O)CNC(=O)Nc1ccc(F)cc1)[C@@H](C)O)[C@@H](C)O)[C@@H](C)CC)[C@@H](C)CC)C(C)C)C(=O)N[C@@H](C)C(=O)NCC(=O)NCC(=O)N1CCC[C@H]1C(=O)N[C@@H](CO)C(=O)N[C@@H](CO)C(=O)NCC(=O)N[C@@H](C)C(=O)N1CCC[C@H]1C(=O)N1CCC[C@H]1C(=O)N1CCC[C@H]1C(=O)N[C@@H](CO)C(N)=O [Compound 268] ({NH(4-F-phenyl)-CO}-G[GABA]EGTFTSDYSI[Aib]LDKIAQK([AEEA-AEEA-γGlu-C20 diacid])AFVQWLIAGGPSSGAPPPS-NH2)	8.00 to 9.00	95	< 6.00	< 6.00	8.00 to 9.00	103						
